The source of these data is ChEMBL document CHEMBL3352783, “A highly water soluble benzimidazole derivative useful for the treatment of fasciolosis” (Bioorg Med Chem Lett, 2014).

For data set [1], the system named is Fasciola hepatica. Description: Antiparasitic activity against 10 week old Fasciola hepatica infected in sheep assessed as reduction in worm burden at 15 mg/kg, po. It counts as functional.
A short description of data set [2]: Aqueous stability of the compound assessed as time duration showing >95% compound stability at pH 7 and room temperature by UV-HPLC. As to conditions: buffer. It counts as physicochemical.
The test system of data set [3] is Fasciola hepatica. The data set can be described thus: Antiparasitic activity against Fasciola hepatica infected in sheep assessed as fluke reduction at 4 mg/kg, sc. It counts as functional. The note with it: route subcutaneous.
The subject of data set [4] is Fasciola hepatica. Description: Antiparasitic activity against Fasciola hepatica assessed as mortality at 50 mg/L after 24 hrs relative to untreated control. It counts as functional.
The test system of data set [5] is Fasciola hepatica. The data set can be described thus: Antiparasitic activity against Fasciola hepatica infected in sheep assessed as fluke reduction at 12 mg/kg, po. It counts as functional.
Data set [6] relates to Fasciola hepatica. The data set can be described thus: Antiparasitic activity against Fasciola hepatica assessed as mortality at 50 mg/L after 48 hrs relative to untreated control. It is filed as functional.
For data set [7], the system named is Fasciola hepatica. Description: Antiparasitic activity against Fasciola hepatica assessed as mortality at 10 mg/L after 48 hrs relative to untreated control. It is filed as functional.
Data set [8] has as its system Fasciola hepatica. The data set can be described thus: Antiparasitic activity against Fasciola hepatica infected in sheep assessed as reduction of eggs at 4 mg/kg, intramuscular. It counts as functional.
Data set [9] concerns Fasciola hepatica. Description: Antiparasitic activity against Fasciola hepatica assessed as mortality at 10 mg/L after 24 hrs relative to untreated control. It counts as functional.
Data set [10] has as its system Fasciola hepatica. Description: Antiparasitic activity against Fasciola hepatica infected in sheep assessed as reduction of eggs at 12 mg/kg, po. It counts as functional.
Data set [11] concerns Fasciola hepatica. Description: Antiparasitic activity against Fasciola hepatica infected in sheep assessed as reduction of eggs at 4 mg/kg, sc. It counts as functional. The note with it: route subcutaneous.
Data set [12] has as its system Fasciola hepatica. Description: Antiparasitic activity against Fasciola hepatica assessed as mortality at 50 mg/L after 72 hrs relative to untreated control. It is filed as functional.
Data set [13] relates to Fasciola hepatica. The data set can be described thus: Antiparasitic activity against Fasciola hepatica assessed as mortality at 10 mg/L after 72 hrs relative to untreated control. It counts as functional.
Data set [14] has as its system Fasciola hepatica. Description: Antiparasitic activity against Fasciola hepatica infected in sheep assessed as fluke reduction at 4 mg/kg, intramuscular. It is filed as functional.
Data set [15] is described as follows: Aqueous solubility of the compound at pH 7 and 25 degC. It counts as physicochemical.

Values after ≈ are worked out from the molar mass of the structure shown.

As to `CSc1nc2cc(Oc3cccc4ccccc34)c(Cl)cc2[nH]1`, the Efficacy in [1] was 86.9%. The Stability in data set [2] is greater than 26 h.

In the case of `CSc1nc2cc(Oc3cccc4ccccc34)c(Cl)cc2n1COP(=O)([O-])[O-].[Na+].[Na+]`, the Efficacy is 61.4% in [3]; 100% in [4]; 83.3% in [5]; 100% in [6]; 95.8% in data set [7]; 44.9% in data set [8]. The Efficacy in [9] turned out to be 95.8%; in data set [10], 95.1%; in data set [11], 65.8%; in data set [12], 100%; in data set [13], 100%; in data set [14] it was 87.8%. Further, in [2], the Stability is greater than 26 h.

One may read the solubility as the dissolved amount per volume that the medium holds. Low readings indicate little dissolved substance, high ones much dissolved substance. Consider `CSc1nc2cc(Cl)c(Oc3cccc(Cl)c3Cl)cc2[nH]1` [TRICLABENDAZOLE], for which the Efficacy in [4], in data set [6], in data set [7], in [9], in [12] and in data set [13] was 100% in each case. The same compound returned a solubility in data set [15] of 0.2 µg/mL (≈ 0.556 µM). The Stability in data set [2] is greater than 24 h.
